Experimental data reported in patent US20260232634A1, “TREATMENT OF PEDIATRIC CANCERS USING GYLCOGEN SYNTHASE KINASE FORM B INHIBITORS” (Actuate Therapeutics Inc., priority 2023, published 2026).
“And” between values parts separate entries of the source, which are not always exact repeats. Equal values may be shown once. “Also recorded” adds a separate entry of the source.

Tests used:
refractory malignancies = assay: Phase 1/2 study of 9-ING-41 as a single agent or with chemotherapy in pediatric patients with refractory malignancies; assay type: in vivo, human (pediatric patients); settings: for OS (overall survival) / Notes (response): intermediate data; for Best Response / Status Last FUP / Survival: unaudited data
[1] = tested on: 93T449 liposarcoma cell line; assay: Western blot analysis after 9-ING-41 treatment; assay type: cell-based, Human; settings: 93T449, pretreated at IC5072, harvested after 48 hours
Experimental: (§1) Saos-2 osteosarcoma and 93T449 liposarcoma cell lines were pretreated at IC5072 with small molecule GSK-3 inhibitor 9-ING-41 (elraglusib). The cells were harvested for western blot analysis after 48 hours of treatment. Additionally, both cancer cell lines as well as TALL-104 T-cells and NK-92 NK cells were treated with 0.5 μM 9-ING-41 for 24 hours and harvested for Luminex cytokine profiling. […] Additionally, an increase in PD-L1 expression was observed. […] Follow-up cytokine profiling is in progress. […] The potential synergistic effect of these two therapies is currently under investigation with co-culture experiments of sarcoma and immune cells. The treatment cohorts for these experiments include 9-ING-41 combined with either anti-PD-L1, anti-PD-1, or anti-CTLA-4 immune checkpoint inhibitors.

[2] = tested on: Saos-2 osteosarcoma cell line; assay: Western blot analysis after 9-ING-41 treatment; assay type: cell-based, Human; settings: Saos-2, pretreated at IC5072, harvested after 48 hours
Experimental: as §1

TALL-104 T-cells = assay: Luminex cytokine profiling; assay type: cell-based; settings: 0.5 μM 9-ING-41 for 24 hours
Experimental: as §1

NK-92 NK cells = assay: Luminex cytokine profiling; assay type: cell-based; settings: NK-92 cells, 0.5 μM 9-ING-41 for 24 hours
Experimental: as §1

[3] = Human pharmacokinetics of 9-ING-41 from study NCT03678883; settings: in vivo, intravenous, dose 9.3 mg/kg (current dose)
From the text: Example 1. Human Pharmacokinetics of 9-ING-41 from Study

[4] = 1801 adult study, tolerated dose level; assay type: in vivo, human (adult)
[5] = tested on: 93T449 liposarcoma cell line; assay: Luminex cytokine profiling; assay type: cell-based, Human; settings: 93T449, 0.5 μM 9-ING-41 for 24 hours
Experimental: as §1

[6] = tested on: Saos-2 osteosarcoma cell line; assay: Luminex cytokine profiling; assay type: cell-based, Human
Experimental: as §1

[7] = CIC rearranged sarcoma patient, elraglusib 15 mg/kg + Cyclophosphamide/topotecan
[8] = Ependymoma patient, elraglusib 9.3 mg/kg + Cyclophosphamide/topotecan
[9] = Ependymoma patient, elraglusib 12.4 mg/kg, chemotherapy backbone N/A
[10] = Ependymoma patient, elraglusib 15 mg/kg + Irinotecan
[11] = Ewing sarcoma patient, 9-ING-41 9.3 mg/kg + Cyclophosphamide/topotecan
[12] = Ewing sarcoma patient, elraglusib 9.3 mg/kg + Cyclophosphamide/topotecan
[13] = Ewing sarcoma patient, elraglusib 12.4 mg/kg + Cyclophosphamide/topotecan
[14] = Ewing sarcoma patient, elraglusib 15 mg/kg + Cyclophosphamide/topotecan
[15] = Glioblastoma multiforme (GBM) patient, elraglusib 12.4 mg/kg + Cyclophosphamide/topotecan
[16] = Neuroblastoma patient, 9-ING-41 12.4 mg/kg + Cyclophosphamide/topotecan
[17] = Neuroblastoma patient, elraglusib 9.3 mg/kg + Irinotecan
[18] = Neuroblastoma patient, elraglusib 12.4 mg/kg + Cyclophosphamide/topotecan
[19] = Neuroblastoma patient, elraglusib 12.4 mg/kg + Irinotecan
[20] = Neuroblastoma patient, elraglusib 15 mg/kg + Cyclophosphamide/topotecan
[21] = Osteosarcoma patient, elraglusib 9.3 mg/kg + Cyclophosphamide/topotecan
[22] = Rhabdomyosarcoma patient, elraglusib 9.3 mg/kg + Irinotecan
[23] = seven metastatic, refractory Ewing and Ewing-like sarcoma patients, elraglusib+cyclophosphamide/topotecan

Compound: Cn1cc(C2=C(c3coc4ccc(F)cc34)C(=O)NC2=O)c2cc3c(cc21)OCO3 [9-ING-41, 3-(5-Fluorobenzofuran-3-yl)-4-(5-methyl-5H-[1,3]dioxolo[4,5-f]indol-7-yl) pyrrole-2,5-dione]
- patients with stable disease (refractory malignancies; 6 patients (2 NBL, 1 aRMS, 1 EP, 1 OS, 1 GBM)): 26.1%
- patients remaining on study treatment ≥3 months (refractory malignancies; 8 pts (2 NBL, 2 EP, 1 OS, 1 aRMS, 1 ES, 1 PB)): 35%
- OS (overall survival) (refractory malignancies; Adrenocortical carcinoma patient, 9-ING-41 15 mg/kg + Cyclophosphamide/topotecan): 102 days
- OS (overall survival) (refractory malignancies; Alveolar rhabdomyosarcoma patient, 9-ING-41 9.3 mg/kg + Irinotecan): 375 days
- OS (overall survival) (refractory malignancies; CIC rearranged sarcoma patient, 9-ING-41 15 mg/kg + Cyclophosphamide/topotecan): 47 days
- Best Response (refractory malignancies; [7]): PD (progressive disease)
- Status Last FUP (refractory malignancies; [7]): Dead
- Survival (refractory malignancies; [7]): 48 days
- OS (overall survival) (refractory malignancies; Embryonal CNS tumor NOS patient, 9-ING-41 9.3 mg/kg + Irinotecan): 262 days
- Best Response (refractory malignancies; [8]): PD (progressive disease)
- Status Last FUP (refractory malignancies; [8]): Alive
- Survival (refractory malignancies; [8]): 182 days
- Best Response (refractory malignancies; [9]): SD (stable disease)
- Status Last FUP (refractory malignancies; [9]): Dead
- Survival (refractory malignancies; [9]): 440 days
- Best Response (refractory malignancies; [10]): SD (stable disease)
- Status Last FUP (refractory malignancies; [10]): Dead
- Survival (refractory malignancies; [10]): 757 days and 526 days
- Notes (response) (refractory malignancies; [11]): pCR-
- OS (overall survival) (refractory malignancies; [11]): 379 days
- OS (overall survival) (refractory malignancies; Ewing sarcoma patient, 9-ING-41 12.4 mg/kg + Cyclophosphamide/topotecan): 176 days
- Status Last FUP (refractory malignancies; [12]): Alive
- Survival (refractory malignancies; [12]): 804 days
- Best Response (refractory malignancies; [13]): SD (stable disease)
- Status Last FUP (refractory malignancies; [13]): Dead
- Survival (refractory malignancies; [13]): 177 days
- Best Response (refractory malignancies; [14]): SD (stable disease); also recorded: PR (partial response)
- Status Last FUP (refractory malignancies; [14]): Dead and Alive
- OS (overall survival) (refractory malignancies; Glioblastoma multiforme (GBM) patient, 9-ING-41 12.4 mg/kg + Cyclophosphamide/topotecan): 406 days
- Best Response (refractory malignancies; [15]): SD (stable disease)
- Status Last FUP (refractory malignancies; [15]): Alive
- Survival (refractory malignancies; [15]): 407 days
- OS (overall survival) (refractory malignancies; High grade astrocytoma patient, 9-ING-41 15 mg/kg, combo treatment N/A): 97 days
- OS (overall survival) (refractory malignancies; Neuroblastoma patient, 9-ING-41 9.3 mg/kg + Irinotecan, 9.3 mg/kg): 245 days and 389 days
- Notes (response) (refractory malignancies; [16]): pCR-
- OS (overall survival) (refractory malignancies; [16]): 308 days
- OS (overall survival) (refractory malignancies; Neuroblastoma patient, 9-ING-41 15 mg/kg + Cyclophosphamide/topotecan): 113 days
- OS (overall survival) (refractory malignancies; Neuroblastoma patient, 9-ING-41 15 mg/kg + Irinotecan): 68 days
- Best Response (refractory malignancies; [17]): SD (stable disease); also recorded: PD (progressive disease)
- Status Last FUP (refractory malignancies; [17]): Dead
- Survival (refractory malignancies; [17]): 245 days and 389 days
- Status Last FUP (refractory malignancies; [18]): Dead
- Survival (refractory malignancies; [18]): 438 days
- Best Response (refractory malignancies; [19]): SD (stable disease)
- Status Last FUP (refractory malignancies; [19]): Dead
- Survival (refractory malignancies; [19]): 360 days
- Best Response (refractory malignancies; [20]): SD (stable disease)
- Status Last FUP (refractory malignancies; [20]): Alive
- Survival (refractory malignancies; [20]): 440 days
- OS (overall survival) (refractory malignancies; Osteosarcoma patient, 9-ING-41 9.3 mg/kg + Cyclophosphamide/topotecan): 389 days
- Best Response (refractory malignancies; [21]): SD (stable disease)
- Status Last FUP (refractory malignancies; [21]): Alive
- Survival (refractory malignancies; [21]): 481 days
- OS (overall survival) (refractory malignancies; Progressive ependymoma patient, 9-ING-41 9.3 mg/kg + Cyclophosphamide/topotecan): 407 days
- OS (overall survival) (refractory malignancies; Recurrent ependymoma patient, 9-ING-41 15 mg/kg + Irinotecan): 403 days
- OS (overall survival) (refractory malignancies; Rhabdomyosarcoma patient, 9-ING-41 15 mg/kg + Cyclophosphamide/topotecan): 78 days
- OS (overall survival) (refractory malignancies; Rhabdomyosarcoma patient, 9-ING-41 15 mg/kg + Irinotecan): 19 days
- Best Response (refractory malignancies; [22]): SD (stable disease)
- Status Last FUP (refractory malignancies; [22]): Dead
- Survival (refractory malignancies; [22]): 375 days
- tolerability (refractory malignancies; heavily pre-treated pediatric patient population): well tolerated
- reduction of tumor at the 1st tumor assessment (partial remission) (refractory malignancies; individual Ewing patients, elraglusib+cyclophosphamide/topotecan): 52% and 96%
- tumor response at 1st tumor assessment (refractory malignancies; one metastatic, refractory Ewing patient, elraglusib+cyclophosphamide/topotecan, 2 months of treatment): complete remission
- radiographic and pathologic response (refractory malignancies; one patient with recurrent Ewing's sarcoma, after 3 cycles of elraglusib/cyclophosphamide/topotecan): complete response
- time in remission with no evidence of disease after termination of treatment (refractory malignancies; same Ewing patient, stopped all treatments after 4 months): ~2 years
- patients continuing on treatment (refractory malignancies; [23]): three of the seven
- patients remaining alive (refractory malignancies; [23]): Four of the seven
- PD-L1 expression, western blot [1]: increase
- cPARP (apoptotic marker), western blot [1]: increase
- PD-L1 expression, western blot [2]: increase
- cPARP (apoptotic marker), western blot [2]: increase
- CXCL11 (TALL-104 T-cells): increase
- IL-18 (TALL-104 T-cells): increased level
- IL-8 chemokine (NK-92 NK cells): increase
- soluble TRAIL (TRAIL/TNFSF10) (NK-92 NK cells): increase
- AUC(0-inf) [3]: 45700 ng·h/mL
- Cmax [3]: 6410 ng/mL
- half-life [3]: 18.9 ± 6.3 h
- AUC(0-t) ([3]; read-out: AUC(0-24)): 42000 ng·h/mL
- highest currently tolerated dose level [4]: tolerated dose level in the 1801 adult study (15 mg/kg).
- growth factor TGF-α [5]: homogenous increase
- IL-6 ([6]; Saos-2 (only this cancer cell line), 0.5 μM 9-ING-41 for 24 hours): increase
- growth factor TGF-α ([6]; Saos-2, 0.5 μM 9-ING-41 for 24 hours): homogenous increase
